# Literature values in paper PMC4273976 (ACS chemical biology, 2014).
# Tested on: EphA4-dependent growth cone collapse
# Conditions: 5 μM peptide, nasal retinal explants; cited from earlier work
sequence,measurement,value
KYLPYWPVLSSL,inhibition of ephrin-A5-induced growth cone collapse,blocked
